Data taken from ChEMBL document CHEMBL1201862, “PubChem BioAssay data set” (2004).
The source made the active and inactive calls.

Legend:
[1] = tested on: BJ; assay: cytotoxicity toward BJ-TERT fibroblasts, dose response, cell-based, RAS-independent, luminescence (AID 1933); format: functional; conditions: Homo sapiens
[2] = molecular target: T1, Heat shock factor protein 1 (Mus musculus, UniProt P38532); assay: inhibition of MG132-induced HSE-luciferase signal, confirmation, cell-based, NIH3T3, luminescence, dose retest (AID 2382); format: functional;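 note: NIH3T3 fibroblasts with HSF1-driven luciferase reporter stressed by proteasome inhibitor MG132; luminescence from HSF1-driven luciferase expression after 8 hours of MG132 stress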
T1 sequence (P38532 whole entry): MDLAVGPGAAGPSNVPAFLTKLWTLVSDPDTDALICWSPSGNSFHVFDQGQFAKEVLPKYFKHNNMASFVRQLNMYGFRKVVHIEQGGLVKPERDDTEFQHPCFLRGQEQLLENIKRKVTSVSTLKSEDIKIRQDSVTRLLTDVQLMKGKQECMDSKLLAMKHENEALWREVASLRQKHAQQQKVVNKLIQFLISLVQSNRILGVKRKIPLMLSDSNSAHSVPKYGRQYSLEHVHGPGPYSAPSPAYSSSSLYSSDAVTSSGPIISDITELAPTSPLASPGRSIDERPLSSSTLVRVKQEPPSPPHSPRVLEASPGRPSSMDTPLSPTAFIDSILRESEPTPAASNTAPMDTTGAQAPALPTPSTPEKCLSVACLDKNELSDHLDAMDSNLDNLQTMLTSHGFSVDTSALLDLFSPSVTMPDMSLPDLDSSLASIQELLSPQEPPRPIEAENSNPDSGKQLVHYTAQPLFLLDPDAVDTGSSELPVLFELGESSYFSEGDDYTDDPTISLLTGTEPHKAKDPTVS

[3] = tested on: BJ; assay: cells; format: functional, cell-based; conditions: Homo sapiens
[4] = Luminescence Cell-Based Dose Confirmation HTS to Identify Inhibitors of Platelet Dense Granule Release. [Related pubchem assays: 1663 (Primary HTS), 1678 (Summary of Project)]; format: functional
[5] = Luminescence-based counterscreen assay for KLF5 inhibitors: dose response cell-based high throughput screening assay to identify cytotoxic compounds using the IEC-6 intestinal epithelial cell line. [Related pubchem assays: 1700 (Primary screen.), 1834 (Confirmation screen.), 1858 (Summary AID.), 1905 (Counterscreen.)]; format: functional
[6] = tested on: BJ; assay: cytotoxicity toward BJ-TERT-LT-ST fibroblasts, dose response, cell-based, RAS-independent, luminescence (AID 1935); format: functional; conditions: Homo sapiens;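 note: BJ fibroblasts immortalized with TERT plus LT and ST oncogenes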
[7] = cytotoxicity toward DRD oncogenic fibroblasts, dose response, cell-based, non-viral oncogenic, luminescence (AID 1934); format: functional; conditions: Homo sapiens
[8] = tested on: Jurkat; assay: antigen receptor-induced NF-kB inhibitors, dose response, Jurkat, luciferase reporter, luminescence, B- and T-cell (AID 489004); format: functional, cell-based; conditions: Homo sapiens;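 note: NF-kB luciferase reporter Jurkat cells stimulated with PMA plus ionomycin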
[9] = cytotoxicity in HEK-293T NF-kB-Luc cells, dose response, cytotoxicity control for B/T-cell NF-kB inhibitor project, cell-based, uHTS hits (AID 489019); format: functional;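 note: IC50 reflects cytotoxicity as loss of cell viability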
[10] = tested on: BJ; assay: cytotoxicity toward Ras-transformed BJeLR fibroblasts, dose response, cell-based, alamar blue fluorescence, cherrypicked samples (AID 2631); format: functional; conditions: Homo sapiens;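 note: confirmatory dose-response assay in RAS-dependent BJ fibroblasts engineered with TERT, LT and ST, with cytotoxicity read by fluorescence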
[11] = Shn3 3'UTR reporter inhibitors, dose response, cell-based, Clone20 osteoblasts, firefly luciferase, cherry-picked (AID 624132); format: functional;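 note: firefly luciferase luminescence from reporter carrying the Shn3 3'UTR in osteoblasts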
[12] = HepG2 cell cytotoxicity, dose response, cytotoxicity control for Shn3 inhibitor project, CellTiter-Glo, cherry-picked (AID 624134); format: functional, cell-based
[13] = control 3'UTR Renilla luciferase suppression, dose response, counter-screen for Shn3 inhibitor project, cell-based, Clone20-Shn3RL, cherry-picked (AID 624133); format: functional
[14] = molecular target: T2, Protein skinhead-1 (Caenorhabditis elegans, UniProt P34707); format: functional
T2 sequence (P34707 whole entry): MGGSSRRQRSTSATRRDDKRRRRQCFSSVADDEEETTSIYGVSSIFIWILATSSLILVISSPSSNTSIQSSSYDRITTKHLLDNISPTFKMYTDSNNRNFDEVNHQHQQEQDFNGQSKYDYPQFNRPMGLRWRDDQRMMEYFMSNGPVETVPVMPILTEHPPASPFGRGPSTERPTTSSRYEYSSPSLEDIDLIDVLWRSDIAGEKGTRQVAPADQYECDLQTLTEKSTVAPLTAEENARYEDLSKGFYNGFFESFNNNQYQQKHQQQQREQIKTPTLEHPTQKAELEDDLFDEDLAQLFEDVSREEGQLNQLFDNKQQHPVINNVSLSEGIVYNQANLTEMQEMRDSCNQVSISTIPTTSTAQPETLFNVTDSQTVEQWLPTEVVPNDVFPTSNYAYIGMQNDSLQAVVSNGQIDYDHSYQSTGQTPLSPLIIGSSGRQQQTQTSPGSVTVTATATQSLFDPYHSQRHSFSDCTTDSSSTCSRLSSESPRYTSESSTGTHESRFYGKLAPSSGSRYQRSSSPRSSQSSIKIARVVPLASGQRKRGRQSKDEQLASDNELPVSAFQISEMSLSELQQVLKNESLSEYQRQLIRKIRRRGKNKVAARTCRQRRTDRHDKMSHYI

[15] = A549 cell cytotoxicity, dose response, cytotoxicity control, plate reader, cherry-pick, antagonist series (AID 743412); format: functional, cell-based
[16] = HepG2 cell cytotoxicity, dose response, cytotoxicity control, plate reader, cherry-pick, antagonist series (AID 743416); format: functional, cell-based
[17] = LGR2 antagonists, dose response, cell-based, HEK293, CRE-luciferase reporter, cherry pick, set 2 (AID 743343); format: functional;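 note: transfected cells were stimulated with diluted bursicon conditioned medium after compound addition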
[18] = MC4R antagonists, dose response, counter-screen for LGR2 antagonist project, cell-based, plate reader, cherry pick (AID 743444); format: functional;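 note: transfected HEK 293 cells stimulated with alpha-MSH peptide; potency of inhibitors of the alpha-MSH evoked signal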
[19] = HEK293 cell cytotoxicity, dose response, cytotoxicity control, plate reader, cherry-picked samples (AID 743446); format: functional, cell-based
[20] = Luminescence Cell-Based Dose Retest to Confirm Inhibitors of Cancer Stem Cells. [Related pubchem assays (depositor defined):AID2717, AID2721]; format: functional; conditions: Homo sapiens
[21] = cytotoxicity in HEK-293T cells, dose response, cytotoxicity control for TCR NF-kB inhibitor project, luminescence, T-cell screen hits (AID 489026); format: functional, cell-based;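 note: cells exposed to compound about 14 hours before the viability readout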
[22] = cytotoxicity in HMLE control line with eGFP shRNA, dose response, counter-screen for HMLE_sh_ECad selective toxicity project, cell-based, HMLE_sh_eGFP, luminescence (AID 463074); format: functional, Homo sapiens;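 note: HMLE human mammary epithelial cells expressing control shRNA against eGFP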
[23] = molecular target: G-protein coupled receptor 55 (Homo sapiens, UniProt Q9Y2T6); assay: GPR55 antagonists, SAR follow-up, counter-screen for GPR35 antagonist project, imaging, image-based (AID 2397); format: functional
Chain of G-protein coupled receptor 55 (Q9Y2T6 whole entry): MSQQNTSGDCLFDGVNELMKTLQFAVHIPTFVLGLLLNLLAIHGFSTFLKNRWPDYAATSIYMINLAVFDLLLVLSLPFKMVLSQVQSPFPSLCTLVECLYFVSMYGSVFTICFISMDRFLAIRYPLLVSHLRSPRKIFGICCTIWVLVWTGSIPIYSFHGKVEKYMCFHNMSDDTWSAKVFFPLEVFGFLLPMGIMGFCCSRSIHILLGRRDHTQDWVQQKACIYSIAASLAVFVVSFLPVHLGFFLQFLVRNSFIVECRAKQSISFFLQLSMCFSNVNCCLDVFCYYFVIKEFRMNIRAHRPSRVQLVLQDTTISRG

[24] = molecular target: T3, Tyrosine-protein phosphatase non-receptor type 7 (Homo sapiens, UniProt P35236); format: functional
T3 sequence (P35236 whole entry): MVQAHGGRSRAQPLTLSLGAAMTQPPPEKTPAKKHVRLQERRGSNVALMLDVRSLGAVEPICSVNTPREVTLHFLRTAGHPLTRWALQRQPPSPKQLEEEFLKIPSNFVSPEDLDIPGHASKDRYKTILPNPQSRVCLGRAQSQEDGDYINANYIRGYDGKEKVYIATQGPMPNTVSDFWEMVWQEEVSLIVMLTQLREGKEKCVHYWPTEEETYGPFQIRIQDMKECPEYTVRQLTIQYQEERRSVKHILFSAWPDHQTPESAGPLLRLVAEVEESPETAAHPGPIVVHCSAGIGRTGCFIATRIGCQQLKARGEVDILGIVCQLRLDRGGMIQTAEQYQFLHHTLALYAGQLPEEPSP

[25] = molecular target: T4, Tyrosine-protein phosphatase non-receptor type 22 (Homo sapiens, UniProt Q9Y2R2); format: functional
T4 sequence (Q9Y2R2 whole entry): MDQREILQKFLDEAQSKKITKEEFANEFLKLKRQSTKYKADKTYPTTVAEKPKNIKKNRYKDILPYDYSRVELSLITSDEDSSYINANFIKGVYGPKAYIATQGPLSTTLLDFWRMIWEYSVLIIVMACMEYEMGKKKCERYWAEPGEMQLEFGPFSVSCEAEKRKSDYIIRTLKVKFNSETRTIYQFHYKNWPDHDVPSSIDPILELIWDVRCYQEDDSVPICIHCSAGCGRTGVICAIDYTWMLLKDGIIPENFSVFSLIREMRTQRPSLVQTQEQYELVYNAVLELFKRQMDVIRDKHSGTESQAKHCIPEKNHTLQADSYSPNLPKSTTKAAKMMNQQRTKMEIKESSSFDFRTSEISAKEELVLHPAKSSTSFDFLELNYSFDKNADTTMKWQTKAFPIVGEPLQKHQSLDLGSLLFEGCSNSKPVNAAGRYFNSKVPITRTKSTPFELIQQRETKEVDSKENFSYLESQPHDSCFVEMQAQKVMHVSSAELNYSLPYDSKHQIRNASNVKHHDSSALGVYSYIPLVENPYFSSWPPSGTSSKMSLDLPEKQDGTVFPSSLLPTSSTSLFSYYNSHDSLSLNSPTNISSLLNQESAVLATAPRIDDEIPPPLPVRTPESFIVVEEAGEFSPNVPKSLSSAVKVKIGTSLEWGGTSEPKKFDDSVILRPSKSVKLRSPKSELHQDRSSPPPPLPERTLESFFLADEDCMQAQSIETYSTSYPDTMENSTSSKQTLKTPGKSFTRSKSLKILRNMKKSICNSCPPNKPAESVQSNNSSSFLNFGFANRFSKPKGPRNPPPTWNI

[26] = molecular target: T4, Tyrosine-protein phosphatase non-receptor type 22; format: functional; remark: listed apart in the source

c1ccc(-c2ccc(-c3nc(-c4ccccn4)no3)cc2)cc1
inactive: IC50 [9] > 80 µM | EC50 [10] > 133 µM | IC50 [14] > 100 µM
inconclusive: EC50 [6] 9.38 µM
active: EC50 [1] 3.64 µM | EC50 [2] < 0.16 µM | EC50 [3] 1.69 µM | EC50 [4] 0.189 µM | IC50 [5] 9.09 µM | EC50 [7] 3.27 µM | IC50 [8] 1.17 µM | AC50 [11] 3.75 µM | AC50 [12] 5.26 µM | AC50 [13] 32.7 µM | AC50 [15] 5.48 µM | AC50 [16] 4.67 µM | AC50 [17] 0.236 µM | AC50 [18] 0.261 µM | AC50 [19] 6.22 µM

Cc1ccc(C)c(NS(=O)(=O)c2ccc(-c3cnc(C4CC4)o3)cc2)c1
inconclusive: AC50 [22] 8.44 µM
inactive: IC50 [21] 54 µM
active: EC50 [1] 0.15 µM | EC50 [3] 0.298 µM | EC50 [7] < 0.12 µM | AC50 [20] < 0.16 µM | EC50 [10] < 0.104 µM

Clc1ccccc1Cn1ncc2c(N3CCN(c4ccccc4)CC3)ncnc21
inactive: IC50 [23] > 32 µM

O=C1OC(c2ccc(Br)cc2)=N/C1=C\c1ccco1
inactive: IC50 [24] > 79.4 µM | IC50 [25] > 79.4 µM | IC50 [26] > 79.4 µM
